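Growth conditions: 96-well plates. Treatment: test compound, 48 hours, 5 concentrations. Analysis: linear interpolation between bracketing concentrations; unreached endpoints set to highest concentration. Definition used: TGI = concentration required for complete inhibition of growth.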
Tests used:
Assay in all cases: inhibition of tumour cell growth, NCI panel, 48 h
[1] = test system: MOLT-4 leukemia
[2] = test system: CAKI-1 renal
[3] = test system: IGROV1 ovarian
[4] = test system: 786-0 renal
[5] = test system: CCRF-CEM leukemia
[6] = test system: SK-MEL-2 melanoma
[7] = test system: HOP-92 NSCLC
[8] = test system: DMS 273 small cell lung
[9] = test system: NCI-H23 lung
[10] = test system: NCI-H460 lung
[11] = test system: UO-31 renal
[12] = test system: RPMI-8226 leukemia
[13] = test system: SW-620 colon
[14] = test system: A498 renal
[15] = test system: HCT-15 colon
[16] = test system: UACC-257 melanoma
[17] = test system: U251 CNS
[18] = test system: SR leukemia
[19] = test system: KM20L2 colon
[20] = test system: DLD-1 colon
[21] = test system: LOX IMVI melanoma
[22] = test system: HL-60(TB) leukemia
[23] = test system: SK-MEL-5 melanoma
[24] = test system: MALME-3M melanoma
[25] = test system: OVCAR-5 ovarian
[26] = test system: K-562 leukemia
[27] = test system: SK-MEL-28 melanoma
[28] = test system: KM12 colon
[29] = test system: SNB-19 CNS
[30] = test system: SN12C renal
[31] = test system: XF 498 CNS
[32] = test system: M19-MEL melanoma
[33] = test system: EKVX NSCLC
[34] = test system: TK-10 renal
[35] = test system: OVCAR-3 ovarian
[36] = test system: COLO 205 colon
[37] = test system: SF-268 CNS
[38] = test system: LXFL 529 NSCLC
[39] = test system: M14 melanoma
[40] = test system: HOP-62 NSCLC
[41] = test system: OVCAR-4 ovarian
[42] = test system: SF-539 CNS
[43] = test system: DMS 114 small cell lung
[44] = test system: ACHN renal
[45] = test system: OVCAR-8 ovarian
[46] = test system: NCI-H226 lung
[47] = test system: UACC-62 melanoma
[48] = test system: HCT-116 colon
[49] = test system: A549 NSCLC
[50] = test system: SNB-75 CNS
[51] = test system: HCC-2998 colon
[52] = test system: SF-295 CNS
[53] = test system: T-47D breast
[54] = test system: NCI-H522 lung
[55] = test system: NCI/ADR-RES ovarian
[56] = test system: SK-OV-3 ovarian
[57] = test system: MDA-N
[58] = test system: PC-3 prostate
[59] = test system: HT29 colon
[60] = test system: MDA-MB-435
[61] = test system: BT-549 breast
[62] = test system: DU-145 prostate
[63] = test system: HS 578T breast
[64] = test system: MDA-MB-231 breast
[65] = test system: RXF 393 renal
[66] = test system: MCF7 breast

Question: `CC(C)OP(=O)(OC(C)C)C(=NCCN=C(NNc1ccc([N+](=O)[O-])cc1)P(=O)(OC(C)C)OC(C)C)NNc1ccc([N+](=O)[O-])cc1` was tested. Which TGI [1] did it give?
Answer: Its TGI is > 100 µM.

Question: What about the TGI [2] of the same compound?
Answer: The TGI was 25.4 µM.

Question: And the TGI [3]?
Answer: Its TGI is 16.7 µM.

Question: And the TGI [4]?
Answer: Its TGI is > 100 µM.

Question: What about the TGI [5] of the same compound?
Answer: Its TGI is > 100 µM.

Question: What about the TGI [6] of the same compound?
Answer: Its TGI is 53 µM.

Question: What about the TGI [7] of the same compound?
Answer: The TGI was 8.82 µM.

Question: What about the TGI [8] of the same compound?
Answer: Its TGI is > 100 µM.

Question: What about the TGI [9] of the same compound?
Answer: The TGI was 5.23 µM.

Question: And the TGI [10]?
Answer: Its TGI is > 100 µM.

Question: And the TGI [11]?
Answer: Its TGI is > 100 µM.

Question: And the TGI [12]?
Answer: The TGI was > 100 µM.

Question: What about the TGI [13] of the same compound?
Answer: Its TGI is > 100 µM.

Question: And the TGI [14]?
Answer: Its TGI is 60.3 µM.

Question: And the TGI [15]?
Answer: Its TGI is > 100 µM.

Question: And the TGI [16]?
Answer: The TGI was > 100 µM.

Question: What about the TGI [17] of the same compound?
Answer: The TGI was 91.2 µM.

Question: And the TGI [18]?
Answer: The TGI was > 100 µM.

Question: And the TGI [19]?
Answer: Its TGI is > 100 µM.

Question: And the TGI [20]?
Answer: The TGI was > 100 µM.

Question: What about the TGI [21] of the same compound?
Answer: The TGI was > 100 µM.

Question: What about the TGI [22] of the same compound?
Answer: The TGI was > 100 µM.

Question: And the TGI [23]?
Answer: Its TGI is > 100 µM.

Question: What about the TGI [24] of the same compound?
Answer: Its TGI is > 100 µM.

Question: And the TGI [25]?
Answer: The TGI was > 100 µM.

Question: And the TGI [26]?
Answer: The TGI was > 100 µM.

Question: And the TGI [27]?
Answer: Its TGI is > 100 µM.

Question: And the TGI [28]?
Answer: The TGI was > 100 µM.

Question: And the TGI [29]?
Answer: The TGI was > 100 µM.

Question: What about the TGI [30] of the same compound?
Answer: The TGI was > 100 µM.

Question: And the TGI [31]?
Answer: The TGI was 9.04 µM.

Question: What about the TGI [32] of the same compound?
Answer: The TGI was > 100 µM.

Question: What about the TGI [33] of the same compound?
Answer: Its TGI is > 100 µM.

Question: And the TGI [34]?
Answer: Its TGI is > 100 µM.

Question: And the TGI [35]?
Answer: The TGI was 33.4 µM.

Question: What about the TGI [36] of the same compound?
Answer: Its TGI is 29.6 µM.

Question: What about the TGI [37] of the same compound?
Answer: The TGI was > 100 µM.

Question: And the TGI [38]?
Answer: The TGI was > 100 µM.

Question: And the TGI [39]?
Answer: The TGI was > 100 µM.

Question: What about the TGI [40] of the same compound?
Answer: The TGI was > 100 µM.

Question: And the TGI [41]?
Answer: Its TGI is > 100 µM.

Question: And the TGI [42]?
Answer: The TGI was > 100 µM.

Question: And the TGI [43]?
Answer: The TGI was > 100 µM.

Question: And the TGI [44]?
Answer: Its TGI is 66.5 µM.

Question: And the TGI [45]?
Answer: The TGI was > 100 µM.

Question: What about the TGI [46] of the same compound?
Answer: The TGI was 93.3 µM.

Question: And the TGI [47]?
Answer: Its TGI is 36.7 µM.

Question: What about the TGI [48] of the same compound?
Answer: Its TGI is > 100 µM.

Question: What about the TGI [49] of the same compound?
Answer: Its TGI is > 100 µM.

Question: What about the TGI [50] of the same compound?
Answer: The TGI was > 100 µM.

Question: What about the TGI [51] of the same compound?
Answer: Its TGI is > 100 µM.

Question: With `CC1(C)CCCC2OC2CCC(C)(C)C1=O` (stereo not given) as the compound, how does the TGI [1] read?
Answer: Its TGI is > 100 µM.

Question: And the TGI [52]?
Answer: The TGI was > 100 µM.

Question: What about the TGI [2] of the same compound?
Answer: The TGI was > 100 µM.

Question: And the TGI [3]?
Answer: The TGI was > 100 µM.

Question: And the TGI [53]?
Answer: The TGI was > 100 µM.

Question: And the TGI [4]?
Answer: The TGI was > 100 µM.

Question: What about the TGI [5] of the same compound?
Answer: The TGI was > 100 µM.

Question: What about the TGI [6] of the same compound?
Answer: The TGI was > 100 µM.

Question: What about the TGI [7] of the same compound?
Answer: The TGI was > 100 µM.

Question: And the TGI [9]?
Answer: Its TGI is > 100 µM.

Question: What about the TGI [10] of the same compound?
Answer: The TGI was > 100 µM.

Question: And the TGI [11]?
Answer: The TGI was > 100 µM.

Question: And the TGI [54]?
Answer: The TGI was > 100 µM.

Question: And the TGI [12]?
Answer: The TGI was > 100 µM.

Question: What about the TGI [55] of the same compound?
Answer: Its TGI is > 100 µM.

Question: And the TGI [56]?
Answer: Its TGI is > 100 µM.

Question: And the TGI [13]?
Answer: Its TGI is > 100 µM.

Question: What about the TGI [14] of the same compound?
Answer: Its TGI is > 100 µM.

Question: And the TGI [15]?
Answer: The TGI was > 100 µM.

Question: What about the TGI [16] of the same compound?
Answer: The TGI was > 100 µM.

Question: And the TGI [17]?
Answer: Its TGI is > 100 µM.

Question: What about the TGI [18] of the same compound?
Answer: Its TGI is > 100 µM.

Question: What about the TGI [57] of the same compound?
Answer: The TGI was > 100 µM.

Question: What about the TGI [21] of the same compound?
Answer: Its TGI is > 100 µM.

Question: And the TGI [58]?
Answer: The TGI was > 100 µM.

Question: What about the TGI [22] of the same compound?
Answer: The TGI was > 100 µM.

Question: And the TGI [23]?
Answer: The TGI was > 100 µM.

Question: What about the TGI [24] of the same compound?
Answer: Its TGI is > 100 µM.

Question: What about the TGI [25] of the same compound?
Answer: Its TGI is > 100 µM.

Question: And the TGI [59]?
Answer: Its TGI is > 100 µM.

Question: What about the TGI [60] of the same compound?
Answer: The TGI was > 100 µM.

Question: And the TGI [61]?
Answer: The TGI was > 100 µM.

Question: What about the TGI [26] of the same compound?
Answer: The TGI was > 100 µM.

Question: What about the TGI [27] of the same compound?
Answer: The TGI was > 100 µM.

Question: And the TGI [62]?
Answer: The TGI was > 100 µM.

Question: And the TGI [63]?
Answer: The TGI was > 100 µM.

Question: And the TGI [28]?
Answer: The TGI was > 100 µM.

Question: And the TGI [29]?
Answer: The TGI was > 100 µM.

Question: What about the TGI [30] of the same compound?
Answer: Its TGI is > 100 µM.

Question: What about the TGI [33] of the same compound?
Answer: The TGI was > 100 µM.

Question: And the TGI [34]?
Answer: Its TGI is > 100 µM.

Question: What about the TGI [35] of the same compound?
Answer: Its TGI is > 100 µM.

Question: And the TGI [36]?
Answer: The TGI was > 100 µM.

Question: What about the TGI [37] of the same compound?
Answer: The TGI was > 100 µM.

Question: What about the TGI [39] of the same compound?
Answer: The TGI was > 100 µM.

Question: And the TGI [40]?
Answer: Its TGI is > 100 µM.

Question: And the TGI [41]?
Answer: Its TGI is > 100 µM.

Question: And the TGI [42]?
Answer: The TGI was > 100 µM.

Question: And the TGI [44]?
Answer: Its TGI is > 100 µM.

Question: What about the TGI [45] of the same compound?
Answer: The TGI was > 100 µM.

Question: And the TGI [46]?
Answer: The TGI was > 100 µM.

Question: And the TGI [47]?
Answer: Its TGI is > 100 µM.

Question: And the TGI [64]?
Answer: The TGI was > 100 µM.

Question: What about the TGI [48] of the same compound?
Answer: The TGI was > 100 µM.

Question: What about the TGI [65] of the same compound?
Answer: Its TGI is > 100 µM.

Question: What about the TGI [49] of the same compound?
Answer: Its TGI is > 100 µM.

Question: What about the TGI [50] of the same compound?
Answer: The TGI was > 100 µM.

Question: What about the TGI [66] of the same compound?
Answer: The TGI was > 100 µM.

Question: What about the TGI [51] of the same compound?
Answer: The TGI was > 100 µM.
